Source: patent publication US12398140B2, “Substituted pyrrolo [2,3-d]pyrimidines for treating familial dysautonomia” (PTC THERAPEUTICS, INC., priority 2019, dated 2025)
Structures can show the parent of a compound that is named as a salt.

Tested on: Elongator complex protein 1 (ELPI, also referred to as IKBKAP)
Test: IKBKAP-HTRF assay (IKBKAP protein in lysates of FD patient-derived fibroblasts)
Format: cell-based, human
Details: FD patient-derived fibroblasts GM04589, 48 hours, 7-point concentration curve
Procedure: The assay is used for the quantitative determination of Elongator complex protein 1 (ELPI, also referred to as IKBKAP) concentration in cell lysates using the HTRF® (Homogeneous Time-Resolved Fluorescence) technology. IKBKAP is detected in a sandwich HTRF assay by use of an anti-IKAP antibody labeled with a donor and an anti-IKAP antibody labeled with an acceptor.
Cells were thawed and incubated in DMEM-10% FBS for 72 hours. Cells were trypsinized, counted, and re-suspended to a concentration of 50,000 cells/ml in DMEM-10% FBS. A 199 μL aliquot of the cell suspensions were plated at 10,000 cells per well in a 96 well microtiter plate and incubated for 3 to 5 hours. […] Test compounds were serially diluted 3.16-fold in 100% DMSO to generate a 7-point concentration curve. A 1 μL aliquot of 200× compound solution was transferred to cell-containing wells, and cells were incubated for 48 hours in a cell culture incubator (37° C., 5% CO2, 100% relative humidity). Triplicate samples were set up for each compound concentration. After 48 hours, the supernatant was removed from the cells and 50 μL of the 1×LB4 lysis buffer, containing protease inhibitors, was added to the cells and incubated with shaking at room temperature for 1 hour. A 36 μL aliquot of this lysate was subsequently transferred to the 384-well plate containing 4 μL of the antibody solution (1:50 dilution of anti IKAP d2 and anti-IKAP K(9+8) in detection buffer). The 384-well plate was then centrifuged for 1 minute to bring the solutions to the bottom of the plate and incubated overnight at 4° C. Fluorescence for each well of the plate at 665 nm and 620 nm was measured was on the EnVision plate reader (Perkin Elmer). The ΔF for each sample is calculated by:
[formula] wherein Signal is the normalized fluorescence for each sample well and Blank is the average normalized average fluorescence for the Blank control wells.
The maximum fold increase (MFI) in IKBKAP protein abundance for compounds of Formula (I) or a form thereof relative to the vehicle control are provided in Table 1. MFI was calculated by dividing the ΔF value for each sample well by the sample ΔF for the vehicle control wells.
The EC2x for IKBKAP protein expression obtained from the 7-point concentration curve generated for each test compound according to the protocol in Biological Example 1 are also provided in Table 1. The term “EC2x for IKBKAP protein expression” is defined as the concentration of test compound that is effective in producing two times the amount of IKBKAP protein in a FD patient cell compared to the amount produced from the DMSO vehicle control.

| Compound | EC2x for IKBKAP protein expression (concentration producing two times the amount of IKBKAP protein vs DMSO vehicle control) | MFI (maximum fold increase in IKBKAP protein abundance relative to the vehicle control) |
| --- | --- | --- |
| Cl.NCCCc1cc2c(NCc3ccco3)nc(Cl)nc2[nH]1 [Cpd 1, 6-(3-aminopropyl)-2-chloro-N-[(furan-2-yl)methyl]-7H-pyrrolo[2,3-d]pyrimidin-4-amine hydrochloride] | *** (between >0.02 μM and ≤0.5 μM is indicated by three stars (***)) | **** (between >3.9 and ≤4.9 is indicated by four stars (****)) |
| Cl.NCCCc1[nH]c2nc(Cl)nc(NCc3ccco3)c2c1F [Cpd 2, 6-(3-aminopropyl)-2-chloro-5-fluoro-N-[(furan-2-yl)methyl]-7H-pyrrolo[2,3-d]pyrimidin-4-amine hydrochloride] | *** (between >0.02 μM and ≤0.5 μM is indicated by three stars (***)) | *** (between >2.9 and ≤3.9 is indicated by three stars (***)) |
| CNCCc1cc2c(NCc3ccco3)nc(Cl)nc2[nH]1.Cl [Cpd 3, 2-chloro-N-[(furan-2-yl)methyl]-6-[2-(methylamino)ethyl]-7H-pyrrolo[2,3-d]pyrimidin-4-amine hydrochloride] | *** (between >0.02 μM and ≤0.5 μM is indicated by three stars (***)) | ***** (>4.9 is indicated by five stars (*****)) |
| CNC(C)Cc1cc2c(NCc3ccco3)nc(Cl)nc2[nH]1.Cl (stereo not drawn) [Cpd 4, 2-chloro-N-[(furan-2-yl)methyl]-6-[2-(methylamino)propyl]-7H-pyrrolo[2,3-d]pyrimidin-4-amine hydrochloride] | *** (between >0.02 μM and ≤0.5 μM is indicated by three stars (***)) | **** (between >3.9 and ≤4.9 is indicated by four stars (****)) |
| CNCCc1cc2c(NCc3nccs3)nc(Cl)nc2[nH]1.Cl [Cpd 5, 2-chloro-6-[2-(methylamino)ethyl]-N-[(1,3-thiazol-2-yl)methyl]-7H-pyrrolo[2,3-d]pyrimidin-4-amine hydrochloride] | *** (between >0.02 μM and ≤0.5 μM is indicated by three stars (***)) | ***** (>4.9 is indicated by five stars (*****)) |
| CNCCc1[nH]c2nc(Cl)nc(NCc3ccco3)c2c1F.Cl [Cpd 6, 2-chloro-5-fluoro-N-[(furan-2-yl)methyl]-6-[2-(methylamino)ethyl]-7H-pyrrolo[2,3-d]pyrimidin-4-amine hydrochloride] | *** (between >0.02 μM and ≤0.5 μM is indicated by three stars (***)) | ***** (>4.9 is indicated by five stars (*****)) |
| CN(C)CCc1cc2c(NCc3ccco3)nc(Cl)nc2[nH]1 [Cpd 7, 2-chloro-6-[2-(dimethylamino)ethyl]-N-[(furan-2-yl)methyl]-7H-pyrrolo[2,3-d]pyrimidin-4-amine] | * (An EC2x>1 μM is indicated by one star (*)) | * (An MFI≤1.9 is indicated by one star (*)) |
| Cl.NCCc1cc2c(NCc3ccco3)nc(Cl)nc2[nH]1 [Cpd 8, 6-(2-aminoethyl)-2-chloro-N-[(furan-2-yl)methyl]-7H-pyrrolo[2,3-d]pyrimidin-4-amine hydrochloride] | *** (between >0.02 μM and ≤0.5 μM is indicated by three stars (***)) | *** (between >2.9 and ≤3.9 is indicated by three stars (***)) |
| [2H]C([2H])([2H])NCCc1cc2c(NCc3ccco3)nc(Cl)nc2[nH]1 [Cpd 9, 2-chloro-N-[(furan-2-yl)methyl]-6-{2-[(^2H3)methylamino]ethyl}-7H-pyrrolo[2,3-d]pyrimidin-4-amine hydrochloride] | *** (between >0.02 μM and ≤0.5 μM is indicated by three stars (***)) | **** (between >3.9 and ≤4.9 is indicated by four stars (****)) |
| C[C@H](N)Cc1[nH]c2nc(Cl)nc(NCc3ccco3)c2c1F.Cl [Cpd 10, 6-[(2S)-2-aminopropyl]-2-chloro-5-fluoro-N-[(furan-2-yl)methyl]-7H-pyrrolo[2,3-d]pyrimidin-4-amine hydrochloride] | **** (between >0.005 μM and ≤0.02 μM is indicated by four stars (****)) | ***** (>4.9 is indicated by five stars (*****)) |
| CC(C)[C@H](N)Cc1cc2c(NCc3ccco3)nc(Cl)nc2[nH]1.Cl [Cpd 11, 6-[(2R)-2-amino-3-methylbutyl]-2-chloro-N-[(furan-2-yl)methyl]-7H-pyrrolo[2,3-d]pyrimidin-4-amine hydrochloride] | *** (between >0.02 μM and ≤0.5 μM is indicated by three stars (***)) | **** (between >3.9 and ≤4.9 is indicated by four stars (****)) |
| CC(C)[C@H](N)Cc1cc2c(NCc3ccncc3)nc(Cl)nc2[nH]1.Cl.Cl [Cpd 12, 6-[(2R)-2-amino-3-methylbutyl]-2-chloro-N-[(pyridin-4-yl)methyl]-7H-pyrrolo[2,3-d]pyrimidin-4-amine dihydrochloride] | *** (between >0.02 μM and ≤0.5 μM is indicated by three stars (***)) | ***** (>4.9 is indicated by five stars (*****)) |
| C[C@H](N)Cc1[nH]c2nc(Cl)nc(NCc3ccco3)c2c1Cl.Cl [Cpd 13, 6-[(2S)-2-aminopropyl]-2,5-dichloro-N-[(furan-2-yl)methyl]-7H-pyrrolo[2,3-d]pyrimidin-4-amine hydrochloride] | ***** (≤0.005 μM is indicated by five stars (*****)) | ***** (>4.9 is indicated by five stars (*****)) |
| CC(C)[C@H](N)Cc1[nH]c2nc(Cl)nc(NCc3ccco3)c2c1F.Cl [Cpd 14, 6-[(2R)-2-amino-3-methylbutyl]-2-chloro-5-fluoro-N-[(furan-2-yl)methyl]-7H-pyrrolo[2,3-d]pyrimidin-4-amine hydrochloride] | **** (between >0.005 μM and ≤0.02 μM is indicated by four stars (****)) | ***** (>4.9 is indicated by five stars (*****)) |
| CC(C)[C@H](N)Cc1[nH]c2nc(Cl)nc(NCc3ccncc3)c2c1F.Cl.Cl [Cpd 15, 6-[(2R)-2-amino-3-methylbutyl]-2-chloro-5-fluoro-N-[(pyridin-4-yl)methyl]-7H-pyrrolo[2,3-d]pyrimidin-4-amine dihydrochloride] | *** (between >0.02 μM and ≤0.5 μM is indicated by three stars (***)) | **** (between >3.9 and ≤4.9 is indicated by four stars (****)) |
| C[C@H](N)Cc1cc2c(NCc3ccco3)nc(Cl)nc2[nH]1 [Cpd 16, 6-[(2S)-2-aminopropyl]-2-chloro-N-[(furan-2-yl)methyl]-7H-pyrrolo[2,3-d]pyrimidin-4-amine] | **** (between >0.005 μM and ≤0.02 μM is indicated by four stars (****)) | **** (between >3.9 and ≤4.9 is indicated by four stars (****)) |
| CNCCc1[nH]c2nc(Cl)nc(NCc3ccco3)c2c1Cl.Cl [Cpd 17, 2,5-dichloro-N-[(furan-2-yl)methyl]-6-[2-(methylamino)ethyl]-7H-pyrrolo[2,3-d]pyrimidin-4-amine hydrochloride] | *** (between >0.02 μM and ≤0.5 μM is indicated by three stars (***)) | **** (between >3.9 and ≤4.9 is indicated by four stars (****)) |
| CNCCc1[nH]c2nc(Cl)nc(NCc3ccco3)c2c1Br [Cpd 18, 5-bromo-2-chloro-N-(furan-2-yl)methyl]-6-[2-(methylamino)ethyl]-7H-pyrrolo[2,3-d]pyrimidin-4-amine hydrochloride] | *** (between >0.02 μM and ≤0.5 μM is indicated by three stars (***)) | **** (between >3.9 and ≤4.9 is indicated by four stars (****)) |
